ChEMBL document CHEMBL1201861, “Genomics of Drug Sensitity in Cancer screening data, Wellcome Trust Sanger Institute”

Columns and labels:
Experiment in all cases: cells
COLO-829 = format: functional, cell-based, Homo sapiens; conditions: Homo sapiens, COLO-829
Description: SANGER: Inhibition of human COLO-829 cell growth in a cell viability assay.

COR-L88 = format: functional, cell-based, Homo sapiens; conditions: Homo sapiens, COR-L88;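 also: growth inhibition of COR-L88 cells, read out with a cell viability assay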
Description: SANGER: Inhibition of human COR-L88 cell growth in a cell viability assay.

D-247MG = format: functional, cell-based, Homo sapiens; conditions: Homo sapiens, D-247MG
Description: SANGER: Inhibition of human D-247MG cell growth in a cell viability assay.

DB = format: functional, cell-based, Homo sapiens; conditions: Homo sapiens, DB
Description: SANGER: Inhibition of human DB cell growth in a cell viability assay.

DOHH-2 = format: functional, cell-based, Homo sapiens; conditions: Homo sapiens, DOHH-2;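 also: growth inhibition of human DOHH-2 cells, read out with a cell viability assay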
Description: SANGER: Inhibition of human DOHH-2 cell growth in a cell viability assay.

ES1 = format: functional, cell-based, Homo sapiens; conditions: Homo sapiens, ES1;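 also: growth inhibition of ES1 cells, read out with a cell viability assay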
Description: SANGER: Inhibition of human ES1 cell growth in a cell viability assay.

EW-24 = format: functional, cell-based, Homo sapiens; conditions: Homo sapiens, EW-24;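 also: human EW-24 cancer cell line, growth inhibition read out via a cell viability assay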
Description: SANGER: Inhibition of human EW-24 cell growth in a cell viability assay.

GI-ME-N = format: functional, cell-based, Homo sapiens; conditions: Homo sapiens, GI-ME-N;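 also: growth inhibition of human GI-ME-N cells, read out with a cell viability assay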
Description: SANGER: Inhibition of human GI-ME-N cell growth in a cell viability assay.

HH = format: functional, cell-based, Homo sapiens; conditions: Homo sapiens, HH
Description: SANGER: Inhibition of human HH cell growth in a cell viability assay.

HuTu80 = format: functional, cell-based, Homo sapiens, HUTU-80; conditions: Homo sapiens, HuTu80;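 also: growth inhibition of HuTu80 human cells, determined with a cell viability readout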
Description: SANGER: Inhibition of human HUTU-80 cell growth in a cell viability assay.

J-RT3-T3-5 = format: functional, cell-based, Homo sapiens; conditions: Homo sapiens, J-RT3-T3-5;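 also: cell viability assay measuring growth inhibition of human J-RT3-T3-5 cells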
Description: SANGER: Inhibition of human J-RT3-T3-5 cell growth in a cell viability assay.

JVM-2 = format: functional, cell-based, Homo sapiens; conditions: Homo sapiens, JVM-2;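 also: growth inhibition of JVM-2 cells determined by a cell viability assay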
Description: SANGER: Inhibition of human JVM-2 cell growth in a cell viability assay.

K5 = format: functional, cell-based, Homo sapiens; conditions: Homo sapiens, K5
Description: SANGER: Inhibition of human K5 cell growth in a cell viability assay.

KE-37 = format: functional, cell-based, Homo sapiens; conditions: Homo sapiens, KE-37;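 also: growth inhibition of KE-37 cells, read out with a cell viability assay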
Description: SANGER: Inhibition of human KE-37 cell growth in a cell viability assay.

KURAMOCHI = format: functional, cell-based, Homo sapiens; conditions: Homo sapiens, KURAMOCHI;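 also: growth inhibition of KURAMOCHI cells, read out with a cell viability assay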
Description: SANGER: Inhibition of human KURAMOCHI cell growth in a cell viability assay.

LS-123 = format: functional, cell-based, Homo sapiens; conditions: Homo sapiens, LS-123
Description: SANGER: Inhibition of human LS-123 cell growth in a cell viability assay.

ML-2 = format: functional, cell-based, Homo sapiens; conditions: Homo sapiens, ML-2;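 also: growth inhibition of ML-2 cells, measured with a cell viability readout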
Description: SANGER: Inhibition of human ML-2 cell growth in a cell viability assay.

MV4-11 = format: functional, cell-based, Homo sapiens, MV-4-11; conditions: Homo sapiens, MV4-11;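 also: cell viability readout measuring growth inhibition of human MV-4-11 cells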
Description: SANGER: Inhibition of human MV-4-11 cell growth in a cell viability assay.

NB17 = format: functional, cell-based, Homo sapiens; conditions: Homo sapiens, NB17;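 also: growth inhibition of NB17 cells, read out with a cell viability assay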
Description: SANGER: Inhibition of human NB17 cell growth in a cell viability assay.

NB5 = format: functional, cell-based, Homo sapiens; conditions: Homo sapiens, NB5;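 also: growth inhibition of NB5 cells, read out as cell viability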
Description: SANGER: Inhibition of human NB5 cell growth in a cell viability assay.

NCI-H1355 = format: functional, cell-based, Homo sapiens; conditions: Homo sapiens, NCI-H1355;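 also: growth inhibition of human NCI-H1355 cells, read out by a cell viability assay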
Description: SANGER: Inhibition of human NCI-H1355 cell growth in a cell viability assay.

NCI-H1395 = format: functional, cell-based, Homo sapiens; conditions: Homo sapiens, NCI-H1395;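 also: cell viability assay read-out quantifying reduced proliferation of human NCI-H1395 cells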
Description: SANGER: Inhibition of human NCI-H1395 cell growth in a cell viability assay.

NCI-H23 = format: functional, cell-based, Homo sapiens; conditions: Homo sapiens, NCI-H23;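 also: cell viability assay measuring growth inhibition of NCI-H23 cells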
Description: SANGER: Inhibition of human NCI-H23 cell growth in a cell viability assay.

NCI-N87 = format: functional, cell-based, Homo sapiens; conditions: Homo sapiens, NCI-N87;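 also: growth inhibition of human NCI-N87 cells, read out with a cell viability assay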
Description: SANGER: Inhibition of human NCI-N87 cell growth in a cell viability assay.

NOMO-1 = format: functional, cell-based, Homo sapiens; conditions: Homo sapiens, NOMO-1;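 also: growth inhibition of human NOMO-1 cells measured by a cell viability assay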
Description: SANGER: Inhibition of human NOMO-1 cell growth in a cell viability assay.

NTERA-2-cl-D1 = format: functional, cell-based, Homo sapiens; conditions: Homo sapiens, NTERA-2-cl-D1;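 also: inhibition of cell growth, measured with a cell viability assay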
Description: SANGER: Inhibition of human NTERA-S-cl-D1 cell growth in a cell viability assay.

OCUB-M = format: functional, cell-based, Homo sapiens; conditions: Homo sapiens, OCUB-M;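 also: growth inhibition of the cancer cell line, read out through a cell viability assay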
Description: SANGER: Inhibition of human OCUB-M cell growth in a cell viability assay.

ONS-76 = format: functional, cell-based, Homo sapiens; conditions: Homo sapiens, ONS-76;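 also: growth inhibition of human ONS-76 cells, read out with a cell viability assay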
Description: SANGER: Inhibition of human ONS-76 cell growth in a cell viability assay.

RPMI-8866 = format: functional, cell-based, Homo sapiens; conditions: Homo sapiens, RPMI-8866
Description: SANGER: Inhibition of human RPMI-8866 cell growth in a cell viability assay.

SK-MEL-1 = format: functional, cell-based, Homo sapiens; conditions: Homo sapiens, SK-MEL-1;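 also: growth inhibition of human SK-MEL-1 cells, read out by a cell viability assay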
Description: SANGER: Inhibition of human SK-MEL-1 cell growth in a cell viability assay.

SK-UT-1 = format: functional, cell-based, Homo sapiens; conditions: Homo sapiens, SK-UT-1;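 also: growth inhibition of SK-UT-1 cells, measured by a cell viability assay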
Description: SANGER: Inhibition of human SK-UT-1 cell growth in a cell viability assay.

SW 954 = format: functional, cell-based, Homo sapiens; conditions: Homo sapiens, SW 954;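 also: growth inhibition of SW954 human cancer cells, read out as cell viability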
Description: SANGER: Inhibition of human SW954 cell growth in a cell viability assay.

A101D = format: functional, cell-based, Homo sapiens; conditions: Homo sapiens, A101D;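 also: growth inhibition of the cell line, measured with a viability assay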
Description: SANGER: Inhibition of human A101D cell growth in a cell viability assay.

AM-38 = format: functional, cell-based, Homo sapiens; conditions: Homo sapiens, AM-38;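 also: growth inhibition of AM-38 cells of human origin, read out by a cell viability assay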
Description: SANGER: Inhibition of human AM-38 cell growth in a cell viability assay.

BB49-HNC = format: functional, cell-based, Homo sapiens; conditions: Homo sapiens, BB49-HNC;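 also: cell viability assay read-out, reported as inhibition of BB49-HNC cell growth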
Description: SANGER: Inhibition of human BB49-HNC cell growth in a cell viability assay.

C2BBe1 = format: functional, cell-based, Homo sapiens; conditions: Homo sapiens, C2BBe1;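 also: growth inhibition of C2BBe1 cells, read out through a viability assay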
Description: SANGER: Inhibition of human C2BBe1 cell growth in a cell viability assay.

TE-10 = format: functional, cell-based, Homo sapiens; conditions: Homo sapiens, TE-10;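 also: growth inhibition of TE-10 cells, measured by a cell viability assay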
Description: SANGER: Inhibition of human TE-10 cell growth in a cell viability assay.

TE-12 = format: functional, cell-based, Homo sapiens; conditions: Homo sapiens, TE-12;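 also: growth inhibition of TE-12 cells, read out by a cell viability assay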
Description: SANGER: Inhibition of human TE-12 cell growth in a cell viability assay.

TE-9 = format: functional, cell-based, Homo sapiens; conditions: Homo sapiens, TE-9;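 also: cell growth inhibition, measured with a cell viability readout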
Description: SANGER: Inhibition of human TE-9 cell growth in a cell viability assay.

CGTH-W-1 = format: functional, cell-based, Homo sapiens; conditions: Homo sapiens, CGTH-W-1;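 also: growth inhibition of human CGTH-W-1 cells measured by cell viability assay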
Description: SANGER: Inhibition of human CGTH-W-1 cell growth in a cell viability assay.

COLO-668 = format: functional, cell-based, Homo sapiens; conditions: Homo sapiens, COLO-668
Description: SANGER: Inhibition of human COLO-668 cell growth in a cell viability assay.

COLO-684 = format: functional, cell-based, Homo sapiens; conditions: Homo sapiens, COLO-684
Description: SANGER: Inhibition of human COLO-684 cell growth in a cell viability assay.

EM-2 = format: functional, cell-based, Homo sapiens; conditions: Homo sapiens, EM-2;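 also: growth inhibition of EM-2 cells, read out with a cell viability assay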
Description: SANGER: Inhibition of human EM-2 cell growth in a cell viability assay.

K562 = format: functional, cell-based, Homo sapiens; conditions: Homo sapiens, K562
Description: SANGER: Inhibition of human K-562 cell growth in a cell viability assay.

KALS-1 = format: functional, cell-based, Homo sapiens; conditions: Homo sapiens, KALS-1;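 also: growth inhibition of KALS-1 cells, determined with a cell viability assay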
Description: SANGER: Inhibition of human KALS-1 cell growth in a cell viability assay.

KNS-42 = format: functional, cell-based, Homo sapiens; conditions: Homo sapiens, KNS-42;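 also: growth inhibition of KNS-42 cells, read out with a cell viability assay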
Description: SANGER: Inhibition of human KNS-42 cell growth in a cell viability assay.

RH-1 = format: functional, cell-based, Homo sapiens; conditions: Homo sapiens, RH-1;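 also: growth inhibition of human RH-1 cells, read out with a cell viability assay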
Description: SANGER: Inhibition of human RH-1 cell growth in a cell viability assay.

RPMI-8226 = format: functional, cell-based, Homo sapiens; conditions: Homo sapiens, RPMI-8226
Description: SANGER: Inhibition of human RPMI-8226 cell growth in a cell viability assay.

SW684 = format: functional, cell-based, Homo sapiens; conditions: Homo sapiens, SW684;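 also: growth inhibition of human SW684 cells, measured by a cell viability assay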
Description: SANGER: Inhibition of human SW684 cell growth in a cell viability assay.

CN(C)C(=N)NC(=N)N [METFORMIN]
IC50 (COLO-829): > 20000 µM
IC50 (COR-L88): 6380 µM
IC50 (D-247MG): > 20000 µM
IC50 (DB): > 20000 µM
IC50 (DOHH-2): 7640 µM
IC50 (ES1): > 20000 µM
IC50 (EW-24): 9450 µM
IC50 (GI-ME-N): > 20000 µM
IC50 (HH): 9630 µM
IC50 (HuTu80): > 20000 µM
IC50 (J-RT3-T3-5): > 20000 µM
IC50 (JVM-2): > 20000 µM
IC50 (K5): > 20000 µM
IC50 (KE-37): 7490 µM
IC50 (KURAMOCHI): > 20000 µM
IC50 (LS-123): 17300 µM
IC50 (ML-2): 1490 µM
IC50 (MV4-11): 8430 µM
IC50 (NB17): > 20000 µM
IC50 (NB5): > 20000 µM
IC50 (NCI-H1355): > 20000 µM
IC50 (NCI-H1395): > 20000 µM
IC50 (NCI-H23): 17100 µM
IC50 (NCI-N87): > 20000 µM
IC50 (NOMO-1): > 20000 µM
IC50 (NTERA-2-cl-D1): 19500 µM
IC50 (OCUB-M): 11400 µM
IC50 (ONS-76): > 20000 µM
IC50 (RPMI-8866): 9030 µM
IC50 (SK-MEL-1): 11800 µM
IC50 (SK-UT-1): > 20000 µM
IC50 (SW 954): > 20000 µM
IC50 (A101D): > 20000 µM
IC50 (AM-38): > 20000 µM
IC50 (BB49-HNC): > 20000 µM
IC50 (C2BBe1): 11800 µM
IC50 (TE-10): > 20000 µM
IC50 (TE-12): > 20000 µM
IC50 (TE-9): 10500 µM
IC50 (CGTH-W-1): > 20000 µM
IC50 (COLO-668): > 20000 µM
IC50 (COLO-684): > 20000 µM

CC(C)CCN1c2nc(Nc3cc(F)c(O)c(F)c3)ncc2N(C)C(=O)C1C (stereo not drawn)
IC50 (COLO-829): 3.67 µM
IC50 (COR-L88): > 5 µM
IC50 (D-247MG): > 5 µM
IC50 (DB): 2.55 µM
IC50 (DOHH-2): > 5 µM
IC50 (EM-2): 2.92 µM
IC50 (ES1): > 5 µM
IC50 (GI-ME-N): > 5 µM
IC50 (HH): 2.8 µM
IC50 (HuTu80): 3.67 µM
IC50 (J-RT3-T3-5): > 5 µM
IC50 (JVM-2): > 5 µM
IC50 (K562): > 5 µM
IC50 (K5): > 5 µM
IC50 (KALS-1): > 5 µM
IC50 (KE-37): 1.59 µM
IC50 (KNS-42): > 5 µM
IC50 (KURAMOCHI): > 5 µM
IC50 (LS-123): > 5 µM
IC50 (ML-2): 0.856 µM
IC50 (MV4-11): 0.979 µM
IC50 (NB17): > 5 µM
IC50 (NB5): > 5 µM
IC50 (NCI-H1355): > 5 µM
IC50 (NCI-H1395): 2.47 µM
IC50 (NCI-H23): > 5 µM
IC50 (NCI-N87): > 5 µM
IC50 (NOMO-1): > 5 µM
IC50 (NTERA-2-cl-D1): > 5 µM
IC50 (OCUB-M): > 5 µM
IC50 (ONS-76): > 5 µM
IC50 (RH-1): > 5 µM
IC50 (RPMI-8226): > 5 µM
IC50 (RPMI-8866): > 5 µM
IC50 (SK-MEL-1): > 5 µM
IC50 (SK-UT-1): > 5 µM
IC50 (SW684): > 5 µM
IC50 (SW 954): 2.86 µM
IC50 (A101D): 4.97 µM
IC50 (AM-38): > 5 µM
IC50 (BB49-HNC): > 5 µM
IC50 (C2BBe1): > 5 µM
IC50 (TE-10): > 5 µM
IC50 (TE-12): > 5 µM
IC50 (TE-9): 2.17 µM
IC50 (CGTH-W-1): 3.94 µM
IC50 (COLO-668): > 5 µM
IC50 (COLO-684): > 5 µM

CS(=O)(=O)c1ccc(C(=O)Nc2ccc(Cl)c(-c3ccccn3)c2)c(Cl)c1 [VISMODEGIB]
IC50 (COLO-829): > 10 µM
IC50 (D-247MG): > 10 µM
IC50 (DB): > 10 µM
IC50 (DOHH-2): > 10 µM
IC50 (EM-2): > 10 µM
IC50 (ES1): > 10 µM
IC50 (EW-24): > 10 µM
IC50 (GI-ME-N): > 10 µM
IC50 (HH): > 10 µM
IC50 (HuTu80): > 10 µM
IC50 (J-RT3-T3-5): > 10 µM
IC50 (JVM-2): > 10 µM
IC50 (K562): > 10 µM
IC50 (K5): > 10 µM
IC50 (KALS-1): > 10 µM
IC50 (KE-37): > 10 µM
IC50 (KNS-42): > 10 µM
IC50 (KURAMOCHI): > 10 µM
IC50 (LS-123): > 10 µM
IC50 (ML-2): > 10 µM
IC50 (MV4-11): > 10 µM
IC50 (NB17): > 10 µM
IC50 (NB5): > 10 µM
IC50 (NCI-H1355): > 10 µM
IC50 (NCI-H1395): > 10 µM
IC50 (NCI-H23): > 10 µM
IC50 (NCI-N87): > 10 µM
IC50 (NOMO-1): > 10 µM
IC50 (NTERA-2-cl-D1): > 10 µM
IC50 (OCUB-M): > 10 µM
IC50 (ONS-76): > 10 µM
IC50 (RH-1): > 10 µM
IC50 (RPMI-8226): > 10 µM
IC50 (RPMI-8866): > 10 µM
IC50 (SK-MEL-1): > 10 µM
IC50 (SK-UT-1): > 10 µM
IC50 (SW684): > 10 µM
IC50 (SW 954): > 10 µM
IC50 (A101D): > 10 µM
IC50 (AM-38): > 10 µM
IC50 (BB49-HNC): > 10 µM
IC50 (C2BBe1): > 10 µM
IC50 (TE-10): > 10 µM
IC50 (TE-12): > 10 µM
IC50 (TE-9): > 10 µM
IC50 (CGTH-W-1): > 10 µM
IC50 (COLO-668): > 10 µM
IC50 (COLO-684): > 10 µM
